Read-outs that look alike come from different tables or passages of the source.
Experiments:
B. anthracis spores = type: cell-based, Bacillus anthracis; conditions: component alone
[1] = system: Xanthomonas maltophilia 948; type: cell-based
B. cereus = type: cell-based, Bacillus cereus
[2] = system: B. pumilus RJ 0055 spores; type: cell-based, Bacillus pumilus
B. subtilis spores = type: cell-based, Bacillus subtilis
B. cereus spores = type: cell-based, Bacillus cereus
L. mesenteroides B 512F = type: cell-based, Leuconostoc mesenteroides
B. subtilis = type: cell-based, Bacillus subtilis
B. pumilus RJ 0055 = type: cell-based, Bacillus pumilus
B. anthracis = type: cell-based, Bacillus anthracis; conditions: vegetative cells; component alone; 24 h
[3] = system: Pseudomonas aeruginosa ATCC 1942
[4] = vegetative cells, component alone, 24 h
[5] = component alone, 24 hours at 35° C.

Compound: OO [H2O2, hydrogen peroxide]
- MIC (B. anthracis spores): 1.0 wt %
- MIC [1]: 0.005 wt %
- MIC (B. cereus): 0.025 wt %
- MIC (S typhimurium ATCC 14028): 0.01 wt %
- MIC [2]: 4.0 wt %
- MIC (Listeria monocytogenes): 0.005 wt %
- MIC (B. subtilis spores): 5.0 wt %
- MIC (B. cereus spores): 5.0 wt %
- MIC (L. mesenteroides B 512F): 0.006 wt %
- MIC (B. subtilis): 0.025 wt %
- MIC (B. pumilus RJ 0055): 0.025 wt %
- MIC (B. anthracis): 0.01 wt %
- MIC (E. coli B ATCC 23226): 0.01 wt %
- MIC [3]: 150 weight ppm

Compound: [Na+].[O-]Cl [NaHClO3, sodium hypochlorite]
- MIC (B. anthracis spores): 1.0 wt %
- MIC [1, 4]: 0.01 wt %
- MIC (B. cereus; [4]): 0.1 wt %
- MIC (S typhimurium ATCC 14028; [4]): 0.02 wt %
- MIC ([2]; […], component alone): 3.5 wt %
- MIC (Listeria monocytogenes; [4]): 0.05 wt %
- MIC (B. subtilis spores; […], component alone): 4.0 wt %
- MIC (B. cereus spores; […], component alone): 4.0 wt %
- MIC (L. mesenteroides B 512F; [4]): 0.035 wt %
- MIC (B. subtilis; [4]): 0.1 wt %
- MIC (B. pumilus RJ 0055; [4]): 0.1 wt %
- MIC (B. anthracis): 0.05 wt %
- MIC (E. coli B ATCC 23226; [4]): 0.02 wt %
- MIC [3, 5]: 500 weight ppm

Compound: [Na+].[Na+].[O-][O-] [Sodium Peroxide, sodium peroxide]
- MIC [3, 5]: 150 weight ppm
